The molecules below were run against human RORgammaT-Ligand Binding Domain (LBD) (Homo sapiens (Human), UniProt P51449) (assay: RORγ-Ligand Binding Domain TR-FRET assay (co-activator peptide SRC1_2 recruitment)). Conditions: Fret IC50 (nM), HIS-tagged RORγ-LBD 3 nM, biotinylated SRC1 LXXLL peptide 100 nM, incubated overnight at 4° C., 665 nm/615 nm signal quotient.
Assay type: biochemical
Description: Activation of RORgammaT activity can be measured using, e.g., biochemical TR-FRET assay. In such an assay, interaction of cofactor-derived peptides with human RORgammaT-Ligand Binding Domain (LBD) can be measured.
To identify novel antagonists of RORgammaT, an assay was developed which employs the interaction of RORgammaT with its co-activator peptide SRC1_2. […] The RORγ-Ligand Binding Domain TR-FRET Assay was run according to the following protocol.
HIS-tagged RORγ-LBD protein was expressed in SF9 cells using a baculovirus expression system. The RORγ-LBD protein was purified by glutathione sepharose chromatography. Separately, SF9 cells not expressing any recombinant protein were lysed and the lysate was added to the purified RORγ-LBD at 0.25 μl lysate (from 10,000 SF9 cells)/nM purified protein. The mixture was then diluted in assay buffer (50 mM Tris pH 7.0, 50 mM KCl, 1 mM EDTA, 0.1 mM DTT) to obtain RORγ-LBD final concentration of 3 nM in 384-well assay plate.
Compounds to be tested were injected to the assay plate using Acoustic Droplet Ejection technology by Echo 550 liquid handler (Labcyte, Calif.).

Sequence of human RORgammaT-Ligand Binding Domain (LBD) (P51449 269-508): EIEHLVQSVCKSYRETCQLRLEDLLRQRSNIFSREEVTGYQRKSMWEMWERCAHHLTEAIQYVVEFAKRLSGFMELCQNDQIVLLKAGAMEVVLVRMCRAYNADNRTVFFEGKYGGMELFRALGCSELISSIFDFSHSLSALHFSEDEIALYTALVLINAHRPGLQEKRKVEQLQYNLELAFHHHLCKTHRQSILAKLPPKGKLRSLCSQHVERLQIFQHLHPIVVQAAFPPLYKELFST

SMILES	IC50 [nM]
CC1(C)C=C(c2nn(C(=O)c3c(Cl)cccc3C(F)(F)F)c3cccc(F)c23)CCC1C(=O)O (racemic) [Example 10A, (R and S)-4-(1-(2-chloro-6-(trifluoromethyl)benzoyl)-4-fluoro-1H-indazol-3-yl)-2,2-dimethylcyclohex-3-enecarboxylic acid]	343
CC1(C)CC(c2nn(C(=O)c3c(Cl)cccc3C(F)(F)F)c3cccc(F)c23)=CCC1C(=O)O (racemic) [Example 10B, (R and S) 4-(1-(2-chloro-6-(trifluoromethyl)benzoyl)-4-fluoro-1H-indazol-3-yl)-6,6-dimethylcyclohex-3-enecarboxylic acid]	96

Same assay, conditions: HIS-tagged RORγ-LBD 3 nM, biotinylated SRC1 LXXLL peptide 100 nM, incubated overnight at 4° C., 665 nm/615 nm signal quotient; read-out: Fret IC50

SMILES	IC50 [nM]
COC1CN(C(=O)c2ccc3c(C4=CCC(C(=O)O)CC4)nn(C(=O)c4c(Cl)cccc4C4CC4)c3c2)C1 (single isomer, unassigned) [Example 2A, (R or S)-4-(1-(2-chloro-6-cyclopropylbenzoyl)-6-(3-methoxyazetidine-1-carbonyl)-1H-indazol-3-yl)cyclohex-3-enecarboxylic acid]	2
COC1CN(C(=O)c2ccc3c(C4=CCC(C(=O)O)CC4)nn(C(=O)c4c(Cl)cccc4C4CC4)c3c2)C1 (single isomer, unassigned) [Example 2B, (S or R)-4-(1-(2-chloro-6-cyclopropylbenzoyl)-6-(3-methoxyazetidine-1-carbonyl)-1H-indazol-3-yl)cyclohex-3-enecarboxylic acid]	2
COC1CN(C(=O)c2ccc3c(C4=CC[C@](C)(C(=O)O)CC4)nn(C(=O)c4c(Cl)cccc4C4CC4)c3c2)C1 (single isomer, unassigned) [Example 2C, (R or S)-4-(1-(2-chloro-6-cyclopropylbenzoyl)-6-(3-methoxyazetidine-1-carbonyl)-1H-indazol-3-yl)-1-methylcyclohex-3-enecarboxylic acid]	4
COC1CN(C(=O)c2ccc3c(C4=CC[C@@](C)(C(=O)O)CC4)nn(C(=O)c4c(Cl)cccc4C4CC4)c3c2)C1 (single isomer, unassigned) [Example 2D, (S or R)-4-(1-(2-chloro-6-cyclopropylbenzoyl)-6-(3-methoxyazetidine-1-carbonyl)-1H-indazol-3-yl)-1-methylcyclohex-3-enecarboxylic acid]	5
CN(C)C(=O)c1ccc2c(C3=CCC(C(=O)O)CC3)nn(C(=O)c3c(Cl)cccc3C(F)(F)F)c2c1 (stereo not drawn) [Example 1A, 4-(1-(2-chloro-6-(trifluoromethyl)benzoyl)-6-(dimethylcarbamoyl)-1H-indazol-3-yl)cyclohex-3-enecarboxylic acid]	18
O=C(NCCO)c1ccc2c(C3=CCC(C(=O)O)CC3)nn(C(=O)c3c(Cl)cccc3C(F)(F)F)c2c1 (stereo not drawn) [Example 1D, 4-(1-(2-chloro-6-(trifluoromethyl)benzoyl)-6-(2-hydroxyethylcarbamoyl)-1H-indazol-3-yl)cyclohex-3-enecarboxylic acid]	774
CC1(C(=O)O)CC=C(c2nn(C(=O)c3c(Cl)cccc3C(F)(F)F)c3cccnc23)CC1 (stereo not drawn) [Example 1F, 4-(1-(2-chloro-6-(trifluoromethyl)benzoyl)-1H-pyrazolo[4,3-b]pyridin-3-yl)-1-methylcyclohex-3-enecarboxylic acid]	170
CC1C=C(c2nn(C(=O)c3c(Cl)cccc3C(F)(F)F)c3cccnc23)CCC1C(=O)O (stereo not drawn) [Example 1G, 4-(1-(2-chloro-6-(trifluoromethyl)benzoyl)-1H-pyrazolo[4,3-b]pyridin-3-yl)-2-methylcyclohex-3-enecarboxylic acid]	182
O=C(O)C1CC=C(c2nn(C(=O)c3c(Cl)cccc3C(F)(F)F)c3ccccc23)CC1 (stereo not drawn) [Example 1H, 4-(1-(2-chloro-6-(trifluoromethyl)benzoyl)-1H-indazol-3-yl)cyclohex-3-enecarboxylic acid]	20
CC1(C(=O)O)CC=C(c2nn(C(=O)c3c(Cl)cccc3C(F)(F)F)c3cccc(Cl)c23)CC1 (stereo not drawn) [Example 1I, 4-(4-chloro-1-(2-chloro-6-(trifluoromethyl)benzoyl)-1H-indazol-3-yl)-1-methylcyclohex-3-enecarboxylic acid]	14
CC1(C(=O)O)CC=C(c2nn(C(=O)c3c(Cl)cccc3C3CC3)c3cccc(F)c23)CC1 (stereo not drawn) [Example 1J, 4-(1-(2-chloro-6-cyclopropylbenzoyl)-4-fluoro-1H-indazol-3-yl)-1-methylcyclohex-3-enecarboxylic acid]	7
Cc1cccc(Cl)c1C(=O)n1nc(C2=CCC(C(=O)O)CC2)c2c(F)cccc21 (stereo not drawn) [Example 1K, 4-(1-(2-chloro-6-methylbenzoyl)-4-fluoro-1H-indazol-3-yl)cyclo-hex-3-enecarboxylic acid]	31
Cc1cccc(Cl)c1C(=O)n1nc(C2=CCC(C(=O)O)CC2)c2ncccc21 (stereo not drawn) [Example 1L, 4-(1-(2-chloro-6-methylbenzoyl)-1H-pyrazolo[4,3-b]pyridine-3-yl)cyclohex-3-enecarboxylic acid]	123

Second part, the molecule after the results:

IC50 [nM]	SMILES
54	CC1CC(C(=O)O)CC=C1c1nn(C(=O)c2c(Cl)cccc2C(F)(F)F)c2cccc(F)c12 (racemic) [Example 12A, 4-(1-(2-chloro-6-(trifluoromethyl)benzoyl)-4-fluoro-1H-indazol-3-yl)-5-methylcyclohex-3-enecarboxylic acid]
5	O=C(O)C1CC=C(c2nn(C(=O)c3c(Cl)cccc3C(F)(F)F)c3cc(C(=O)N4CC(F)(F)C4)ccc23)CC1 (stereo not drawn) [Example 4A, 4-(1-(2-chloro-6-(trifluoromethyl)benzoyl)-6-(3,3-difluoroazetidine-1-carbonyl)-1H-indazol-3-yl)cyclohex-3-enecarboxylic acid]
143	O=C(NC1CC1)c1ccc2c(C3=CCC(C(=O)O)CC3)nn(C(=O)c3c(Cl)cccc3C(F)(F)F)c2c1 (stereo not drawn) [Example 4B, 4-(1-(2-chloro-6-(trifluoromethyl)benzoyl)-6-(cyclopropylcarbamoyl)-1H-indazol-3-yl)cyclohex-3-enecarboxylic acid]
9	CN(C(=O)c1ccc2c(C3=CCC(C(=O)O)CC3)nn(C(=O)c3c(Cl)cccc3C(F)(F)F)c2c1)C1CC1 (stereo not drawn) [Example 4C, 4-(1-(2-chloro-6-(trifluoromethyl)benzoyl)-6-(cyclopropyl(methyl)carbamoyl)-1H-indazol-3-yl)cyclohex-3-enecarboxylic acid]
177	O=C(O)C1CC=C(c2nn(C(=O)c3c(Cl)cccc3C(F)(F)F)c3cc(C(=O)N4CCC4)ccc23)CC1 (stereo not drawn) [Example 4D, 4-(6-(azetidine-1-carbonyl)-1-(2-chloro-6-(trifluoromethyl)benzoyl)-1H-indazol-3-yl)cyclohex-3-enecarboxylic acid]
2	COC1CN(C(=O)c2ccc3c(C4=CCC(C(=O)O)CC4)nn(C(=O)c4c(Cl)cccc4C(F)(F)F)c3c2)C1 (stereo not drawn) [Example 4E, 4-(1-(2-chloro-6-(trifluoromethyl)benzoyl)-6-(3-methoxyazetidine-1-carbonyl)-1H-indazol-3-yl)cyclohex-3-enecarboxylic acid]
30	O=C(O)C1CC=C(c2nn(C(=O)c3c(Cl)cccc3C(F)(F)F)c3cc(C(=O)N4CCCC4)ccc23)CC1 (stereo not drawn) [Example 4F, 4-(1-(2-chloro-6-(trifluoromethyl)benzoyl)-6-(pyrrolidine-1-carbonyl)-1H-indazol-3-yl)cyclohex-3-enecarboxylic acid]
6	C[C@H]1CCCN1C(=O)c1ccc2c(C3=CCC(C(=O)O)CC3)nn(C(=O)c3c(Cl)cccc3C(F)(F)F)c2c1 (stereo partly drawn) [Example 4G, 4-(1-(2-chloro-6-(trifluoromethyl)benzoyl)-6-((S)-2-methylpyrrolidine-1-carbonyl)-1H-indazol-3-yl)cyclohex-3-enecarboxylic acid]
115	C[C@@H]1CCCN1C(=O)c1ccc2c(C3=CCC(C(=O)O)CC3)nn(C(=O)c3c(Cl)cccc3C(F)(F)F)c2c1 (stereo partly drawn) [Example 4H, 4-(1-(2-chloro-6-(trifluoromethyl)benzoyl)-6-((R)-2-methylpyrrolidine-1-carbonyl)-1H-indazol-3-yl)cyclohex-3-enecarboxylic acid]
24	CC1CN(C(=O)c2ccc3c(C4=CCC(C(=O)O)CC4)nn(C(=O)c4c(Cl)cccc4C(F)(F)F)c3c2)CCO1 (stereo not drawn) [Example 4J, 4-(1-(2-chloro-6-(trifluoromethyl)benzoyl)-6-(2-methylmorpholine-4-carbonyl)-1H-indazol-3-yl)cyclohex-3-enecarboxylic acid]
94	CN(C(=O)c1ccc2c(C3=CCC(C(=O)O)CC3)nn(C(=O)c3c(Cl)cccc3C(F)(F)F)c2c1)C1CCCCC1 (stereo not drawn) [Example 4K, 4-(1-(2-chloro-6-(trifluoromethyl)benzoyl)-6-(cyclohexyl(methyl)carbamoyl)-1H-indazol-3-yl)cyclohex-3-enecarboxylic acid]
36	O=C(O)C1CC=C(c2nn(C(=O)c3c(Cl)cccc3C(F)(F)F)c3cc(C(=O)N4CCOCC4)ccc23)CC1 (stereo not drawn) [Example 4L, 4-(1-(2-chloro-6-(trifluoromethyl)benzoyl)-6-(morpholine-4-carbonyl)-1H-indazol-3-yl)cyclohex-3-enecarboxylic acid]
